The supplement of paper PMC13207355

What was measured:
Conditions in all cases: exposure time: 72 h
[1] = system: E21 (patient-derived glioblastoma stem cells of mesenchymal subtype); test: surviving fraction (nuclei count normalised to DMSO); higher = more cells surviving (less toxic)
[2] = system: E57 (patient-derived glioblastoma stem cells of mesenchymal subtype); test: as above
[3] = system: E13 (patient-derived glioblastoma stem cells of classical subtype); test: as above
[4] = system: E31 (patient-derived glioblastoma stem cells of proneural subtype); test: as above
[5] = system: E34 (patient-derived glioblastoma stem cells of proneural subtype); test: as above
[6] = system: FT3469 (normal neural stem cell line); test: as above
[7] = system: E28 (patient-derived glioblastoma stem cells of classical subtype); test: as above
[8] = system: E21; test: phenotypic distance (Euclidean, principal components) from DMSO controls (arbitrary units); higher = stronger morphological change
[9] = system: E57; test: as above
[10] = system: E13; test: as above
[11] = system: E31; test: as above
[12] = system: E34; test: as above
[13] = system: FT3469; test: as above
[14] = system: E28; test: as above
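Throughout, for phenotypic distance (Euclidean, principal components) from DMSO controls: cell Painting imaging in 384-well plates, CellProfiler features reduced to at least 20 principal components, Euclidean distance versus same-plate DMSO vehicle wells (0.1% v/v), median over six images per well.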
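Throughout, for surviving fraction (nuclei count normalised to DMSO): nuclei counted by high-content imaging of Hoechst-stained cells in laminin-coated 384-well plates, relative to 0.1% DMSO vehicle wells, with staurosporine as cell-death control.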

COc1nc(C)nc(Cl)c1NC1=NCCN1 [Moxonidine]
Conditions | phenotypic distance | surviving fraction
[1], 4.1 nM | – | 1.03
[1], 12.3 nM | – | 0.94
[1], 37 nM | – | 0.924
[1], 111.1 nM | – | 1.12
[1], 333.3 nM | – | 1.1
[1], 1000 nM | – | 1.06
[1], 3000 nM | – | 0.991
[2], 4.1 nM | – | 1.06
[2], 12.3 nM | – | 0.999
[2], 37 nM | – | 1.06
[2], 111.1 nM | – | 1.03
[2], 333.3 nM | – | 0.978
[2], 1000 nM | – | 0.975
[2], 3000 nM | – | 1.04
[3], 4.1 nM | – | 0.843
[3], 12.3 nM | – | 1.02
[3], 37 nM | – | 0.886
[3], 111.1 nM | – | 0.915
[3], 333.3 nM | – | 0.908
[3], 1000 nM | – | 0.948
[3], 3000 nM | – | 0.923
[4], 4.1 nM | – | 1
[4], 12.3 nM | – | 1.18
[4], 37 nM | – | 0.879
[4], 111.1 nM | – | 1.15
[4], 333.3 nM | – | 0.956
[4], 1000 nM | – | 1.21
[4], 3000 nM | – | 1.06
[5], 4.1 nM | – | 0.953
[5], 12.3 nM | – | 0.957
[5], 37 nM | – | 0.962
[5], 111.1 nM | – | 1.07
[5], 333.3 nM | – | 1.26
[5], 1000 nM | – | 0.981
[5], 3000 nM | – | 0.699
[6], 4.1 nM | – | 1.03
[6], 12.3 nM | – | 1.1
[6], 37 nM | – | 1.25
[6], 111.1 nM | – | 1.04
[6], 333.3 nM | – | 1.26
[6], 1000 nM | – | 1.18
[6], 3000 nM | – | 1.38
[7], 4.1 nM | – | 0.996
[7], 12.3 nM | – | 1.06
[7], 37 nM | – | 0.904
[7], 111.1 nM | – | 1.13
[7], 333.3 nM | – | 0.848
[7], 1000 nM | – | 1.05
[7], 3000 nM | – | 0.825
[8], 4.1 nM | 0.506 | –
[8], 12.3 nM | 0.442 | –
[8], 37 nM | 0.528 | –
[8], 111.1 nM | 1.03 | –
[8], 333.3 nM | 0.334 | –
[8], 1000 nM | 0.69 | –
[8], 3000 nM | 0.274 | –
[9], 4.1 nM | 0.464 | –
[9], 12.3 nM | 0.657 | –
[9], 37 nM | 0.543 | –
[9], 111.1 nM | 0.801 | –
[9], 333.3 nM | 0.46 | –
[9], 1000 nM | 0.757 | –
[9], 3000 nM | 0.505 | –
[10], 4.1 nM | 0.65 | –
[10], 12.3 nM | 0.585 | –
[10], 37 nM | 0.647 | –
[10], 111.1 nM | 0.433 | –
[10], 333.3 nM | 0.523 | –
[10], 1000 nM | 0.446 | –
[10], 3000 nM | 0.37 | –
[11], 4.1 nM | 0.413 | –
[11], 12.3 nM | 0.823 | –
[11], 37 nM | 0.773 | –
[11], 111.1 nM | 0.902 | –
[11], 333.3 nM | 0.598 | –
[11], 1000 nM | 0.599 | –
[11], 3000 nM | 0.717 | –
[12], 4.1 nM | 0.347 | –
[12], 12.3 nM | 0.861 | –
[12], 37 nM | 0.936 | –
[12], 111.1 nM | 0.523 | –
[12], 333.3 nM | 0.639 | –
[12], 1000 nM | 0.533 | –
[12], 3000 nM | 1.09 | –
[13], 4.1 nM | 0.479 | –
[13], 12.3 nM | 0.821 | –
[13], 37 nM | 0.541 | –
[13], 111.1 nM | 0.878 | –
[13], 333.3 nM | 0.406 | –
[13], 1000 nM | 0.742 | –
[13], 3000 nM | 0.873 | –
[14], 4.1 nM | 0.486 | –
[14], 12.3 nM | 0.819 | –
[14], 37 nM | 0.764 | –
[14], 111.1 nM | 0.711 | –
[14], 333.3 nM | 0.733 | –
[14], 1000 nM | 0.573 | –
[14], 3000 nM | 0.781 | –

CCOC(=O)C1=C(C)NC(C)=C(C(=O)OCC)C1c1c(F)c(F)c(F)c(F)c1F [Nemadipine-A]
Conditions | phenotypic distance | surviving fraction
[1], 4.1 nM | – | 0.897
[1], 12.3 nM | – | 0.936
[1], 37 nM | – | 0.991
[1], 111.1 nM | – | 0.971
[1], 333.3 nM | – | 0.924
[1], 1000 nM | – | 0.931
[1], 3000 nM | – | 0.838
[2], 4.1 nM | – | 0.945
[2], 12.3 nM | – | 1.07
[2], 37 nM | – | 1.04
[2], 111.1 nM | – | 0.954
[2], 333.3 nM | – | 1.03
[2], 1000 nM | – | 0.984
[2], 3000 nM | – | 0.77
[3], 4.1 nM | – | 0.797
[3], 12.3 nM | – | 0.944
[3], 37 nM | – | 0.915
[3], 111.1 nM | – | 0.841
[3], 333.3 nM | – | 0.948
[3], 1000 nM | – | 1.09
[3], 3000 nM | – | 0.764
[4], 4.1 nM | – | 1.15
[4], 12.3 nM | – | 1.05
[4], 37 nM | – | 1.01
[4], 111.1 nM | – | 1.26
[4], 333.3 nM | – | 1.3
[4], 1000 nM | – | 1.15
[4], 3000 nM | – | 1.13
[5], 4.1 nM | – | 1.01
[5], 12.3 nM | – | 0.767
[5], 37 nM | – | 1.14
[5], 111.1 nM | – | 1.16
[5], 333.3 nM | – | 1.13
[5], 1000 nM | – | 0.926
[5], 3000 nM | – | 0.909
[6], 4.1 nM | – | 1.03
[6], 12.3 nM | – | 0.928
[6], 37 nM | – | 1.17
[6], 111.1 nM | – | 1.02
[6], 333.3 nM | – | 0.866
[6], 1000 nM | – | 1.1
[6], 3000 nM | – | 0.804
[7], 4.1 nM | – | 0.9
[7], 12.3 nM | – | 1.03
[7], 37 nM | – | 0.81
[7], 111.1 nM | – | 0.996
[7], 333.3 nM | – | 0.945
[7], 1000 nM | – | 0.934
[7], 3000 nM | – | 0.704
[8], 4.1 nM | 0.903 | –
[8], 12.3 nM | 0.665 | –
[8], 37 nM | 0.548 | –
[8], 111.1 nM | 0.745 | –
[8], 333.3 nM | 0.572 | –
[8], 1000 nM | 0.681 | –
[8], 3000 nM | 1.4 | –
[9], 4.1 nM | 0.523 | –
[9], 12.3 nM | 0.695 | –
[9], 37 nM | 0.79 | –
[9], 111.1 nM | 0.477 | –
[9], 333.3 nM | 1.46 | –
[9], 1000 nM | 0.54 | –
[9], 3000 nM | 1.46 | –
[10], 4.1 nM | 0.957 | –
[10], 12.3 nM | 0.892 | –
[10], 37 nM | 0.571 | –
[10], 111.1 nM | 0.762 | –
[10], 333.3 nM | 0.542 | –
[10], 1000 nM | 0.692 | –
[10], 3000 nM | 0.903 | –
[11], 4.1 nM | 0.932 | –
[11], 12.3 nM | 0.387 | –
[11], 37 nM | 0.906 | –
[11], 111.1 nM | 0.74 | –
[11], 333.3 nM | 1.01 | –
[11], 1000 nM | 0.415 | –
[11], 3000 nM | 0.913 | –
[12], 4.1 nM | 0.666 | –
[12], 12.3 nM | 0.857 | –
[12], 37 nM | 0.641 | –
[12], 111.1 nM | 0.619 | –
[12], 333.3 nM | 0.843 | –
[12], 1000 nM | 0.698 | –
[12], 3000 nM | 0.734 | –
[13], 4.1 nM | 0.624 | –
[13], 12.3 nM | 0.608 | –
[13], 37 nM | 0.488 | –
[13], 111.1 nM | 0.574 | –
[13], 333.3 nM | 0.712 | –
[13], 1000 nM | 0.892 | –
[13], 3000 nM | 1.01 | –
[14], 4.1 nM | 0.43 | –
[14], 12.3 nM | 0.613 | –
[14], 37 nM | 0.807 | –
[14], 111.1 nM | 0.686 | –
[14], 333.3 nM | 0.703 | –
[14], 1000 nM | 0.642 | –
[14], 3000 nM | 1.14 | –
